Source: patent publication US20060019966A1, “Method for treating nervous system disorders and conditions” (Wyeth, priority 2004, published 2006)

How the values were obtained:
[1] = target: T1, recombinant human dopamine transporter (hDAT) (Homo sapiens, UniProt Q01959); test: Dopamine uptake transporter binding assay (3H-WIN 35,428); conditions: inhibition of 3H-WIN 35,428 binding to hDAT membranes
T1 construct: purchased PerkinElmer RBHDATM

hNET = target: T2, hNET (Homo sapiens, UniProt P23975); test: Norepinephrine (NE) uptake assay, hNET function uptake; assay type: cell-based; conditions: MDCK-Net6 cells, [3H]NE uptake
T2 construct: expressed in transfected cells; host or cells: MDCK-Net6 (MDCK cells stably transfected with hNET)
T2 sequence (P23975 whole entry): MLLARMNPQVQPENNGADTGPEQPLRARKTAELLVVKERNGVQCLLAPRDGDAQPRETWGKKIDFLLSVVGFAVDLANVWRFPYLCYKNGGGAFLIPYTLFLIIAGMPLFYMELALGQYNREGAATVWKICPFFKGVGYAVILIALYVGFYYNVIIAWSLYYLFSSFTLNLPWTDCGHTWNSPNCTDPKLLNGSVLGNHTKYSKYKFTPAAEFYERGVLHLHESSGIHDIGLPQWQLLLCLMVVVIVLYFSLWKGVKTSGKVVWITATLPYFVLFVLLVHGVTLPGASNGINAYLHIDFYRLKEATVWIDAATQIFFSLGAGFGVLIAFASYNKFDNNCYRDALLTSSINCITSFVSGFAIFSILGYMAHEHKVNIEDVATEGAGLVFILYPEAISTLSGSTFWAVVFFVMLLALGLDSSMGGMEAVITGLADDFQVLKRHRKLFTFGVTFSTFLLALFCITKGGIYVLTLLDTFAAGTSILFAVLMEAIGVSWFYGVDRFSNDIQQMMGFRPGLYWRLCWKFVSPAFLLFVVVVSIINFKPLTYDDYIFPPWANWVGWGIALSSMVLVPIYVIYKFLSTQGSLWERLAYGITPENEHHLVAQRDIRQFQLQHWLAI
Description: (§1) The JAR cell line (human placental choriocarcinoma) may be purchased from ATCC (Cat. No. HTB-144). […] For all assays, cells may be plated in Wallac 96-well sterile plates (PerkinElmer, Cat. No. 3983498).
Test compounds are prepared in DMSO (10 mM) and diluted in assay buffer according to test range (1 to 10,000 nM). Twenty-five microliters of assay buffer (maximum NE uptake) or test compound are added directly to triplicate wells containing cells in 200 μl of assay buffer. […] To initiate the NE uptake, [^3H]NE diluted in assay buffer (120 nM final assay concentration) is delivered in 25 μl aliquots to each well and the plates is incubated for 5 minutes (37° C.).

[2] = test system: tail skin temperature (TST) in ovariectomized (OVX) rats; test: Telemetry rat model of ovariectomy-induced thermoregulatory dysfunction; assay type: in vivo; conditions: 30 mg/kg, sc, single dose
Source text: Telemetry model: This model has been modified from a previously reported protocol describing estrogen regulation of diurnal tail skin temperature (TST) patterns (Berendsen, et al., European Journal of Pharmacology, 2001, 419(1): 47-54). […] In ovariectomized (OVX) rats, TST is elevated over the entire 24-hour period, thus the usual decrease in TST during the active (dark) phase is lost, thus, a compound's ability to restore this lowering of TST during the active phase was examined. […] After a 7-day recovery period, TST readings were continuously recorded for the remainder of the study. Tail skin temperature readings were collected from each animal every 5 minutes with values obtained over a 10 second sampling period. The day before test day, an average baseline TST value was calculated for each animal by averaging temperature readings recorded during the 12 hour active (dark) phase. […]
Statistical analysis: Evaluation of a compound's ability to restore normal lowering of TST in the telemetry model was analyzed using hourly TST values calculated for each animal by averaging the 12 temperature readings obtained every 5 minutes over that recording time. […]

hSERT = target: T3, hSERT (Homo sapiens, UniProt P31645); test: Serotonin (5-HT) uptake assay, hSERT function uptake; assay type: cell-based; conditions: JAR cells, [3H]5-HT uptake
T3 construct: The methods for 5-HT functional reuptake using the JAR cell line; host or cells: JAR (human placental choriocarcinoma), staurosporine-stimulated
T3 sequence (P31645 whole entry): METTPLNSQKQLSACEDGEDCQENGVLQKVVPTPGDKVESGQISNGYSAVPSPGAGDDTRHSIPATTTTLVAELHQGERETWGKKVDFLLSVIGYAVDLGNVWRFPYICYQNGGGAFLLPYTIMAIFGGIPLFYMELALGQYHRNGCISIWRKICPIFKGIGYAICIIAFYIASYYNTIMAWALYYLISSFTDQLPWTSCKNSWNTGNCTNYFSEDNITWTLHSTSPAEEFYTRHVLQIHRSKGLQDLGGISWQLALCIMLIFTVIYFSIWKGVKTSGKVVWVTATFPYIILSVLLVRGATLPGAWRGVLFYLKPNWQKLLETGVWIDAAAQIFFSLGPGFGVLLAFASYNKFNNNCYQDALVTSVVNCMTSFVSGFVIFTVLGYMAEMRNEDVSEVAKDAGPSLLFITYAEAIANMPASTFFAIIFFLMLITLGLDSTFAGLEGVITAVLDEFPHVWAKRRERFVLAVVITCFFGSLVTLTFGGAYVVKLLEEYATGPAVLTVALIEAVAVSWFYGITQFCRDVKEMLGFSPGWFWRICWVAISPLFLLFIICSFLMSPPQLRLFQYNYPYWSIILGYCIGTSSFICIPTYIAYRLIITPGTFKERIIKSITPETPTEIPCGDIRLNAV
Description: as §1
The methods for 5-HT functional reuptake using the JAR cell line is modified using a previous literature report (Prasad, et al., Placenta, 1996. 17(4): 201-7). […] On day 2, cells are stimulated with staurosporine (40 nM) to increase the expression of the 5-HT transporter. On day 3, cells are removed from the cell incubator two hours prior to assay and maintained at room temperature to equilibrate the growth medium to ambient oxygen concentration. […] Data from these wells are used to define non-specific 5-HT uptake (minimum 5-HT uptake). Test compounds are prepared in DMSO (10 mM) and diluted in assay buffer according to test range (1 to 1,000 nM). Twenty-five microliters of assay buffer (maximum 5-HT uptake) or test compound are added directly to triplicate wells containing cells in 200 μl of assay buffer. The cells are incubated with the compound for 10 minutes (37° C.). To initiate the reaction, [^3H]hydroxytryptamine creatinine sulfate diluted in assay buffer is delivered in 25 μl aliquots to each well for a final test concentration of 15 nM. The cells are incubated with the reaction mixture for 5 minutes at 37° C. The 5-HT uptake reaction is terminated by decanting the assay buffer.

T1 sequence (Q01959 whole entry): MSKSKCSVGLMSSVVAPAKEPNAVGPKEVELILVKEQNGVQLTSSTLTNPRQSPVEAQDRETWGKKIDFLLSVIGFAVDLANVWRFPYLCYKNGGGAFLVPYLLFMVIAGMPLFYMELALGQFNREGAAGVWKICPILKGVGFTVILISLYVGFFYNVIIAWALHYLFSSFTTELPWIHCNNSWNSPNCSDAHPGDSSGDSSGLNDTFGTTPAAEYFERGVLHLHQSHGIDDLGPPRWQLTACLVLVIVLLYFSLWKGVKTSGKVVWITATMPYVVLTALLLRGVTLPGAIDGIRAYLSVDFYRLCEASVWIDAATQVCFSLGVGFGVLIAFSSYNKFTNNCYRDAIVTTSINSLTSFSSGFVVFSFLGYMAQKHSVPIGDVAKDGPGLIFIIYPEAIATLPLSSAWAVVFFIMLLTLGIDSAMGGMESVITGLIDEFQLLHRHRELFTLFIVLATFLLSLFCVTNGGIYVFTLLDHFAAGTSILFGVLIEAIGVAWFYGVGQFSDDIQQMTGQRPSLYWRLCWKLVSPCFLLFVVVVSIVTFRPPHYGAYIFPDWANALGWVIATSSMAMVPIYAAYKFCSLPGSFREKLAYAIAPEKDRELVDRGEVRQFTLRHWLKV

| Compound | hDAT binding (% I at 10 μM) [1] [%] | EC50 (hNET) [nM] | effect on tail skin temperature (TST) [2] | EC50 (hSERT) [nM] |
| --- | --- | --- | --- | --- |
| Cc1ccc(C23CNCC2C3)cc1 (single isomer, unassigned; (-)) [(−)-1-(4-methylphenyl)-3-azabicyclo[3.1.0]hexane] | 55 | 1180 | restored normal TST | 977 |
| Fc1ccc(C(OCCN2CCN(CCCc3ccccc3)CC2)c2ccc(F)cc2)cc1 [1-[2-[bis(4-fluorophenyl)methoxy]ethyl]-4-(3-phenylpropyl)piperazine, reference compound] | – | – | restored normal TST | – |
